This note sets out measurements from patent publication US9365522B2, “Pyrazole amide derivative” (AMGEN INC., priority 2015, dated 2016).

This assay concerns the target T1, human RORγ-LBD (Homo sapiens, UniProt P51449).
T1 construct: made in house; host or cells: E. coli (BL-21)
T1 sequence (P51449 262-518): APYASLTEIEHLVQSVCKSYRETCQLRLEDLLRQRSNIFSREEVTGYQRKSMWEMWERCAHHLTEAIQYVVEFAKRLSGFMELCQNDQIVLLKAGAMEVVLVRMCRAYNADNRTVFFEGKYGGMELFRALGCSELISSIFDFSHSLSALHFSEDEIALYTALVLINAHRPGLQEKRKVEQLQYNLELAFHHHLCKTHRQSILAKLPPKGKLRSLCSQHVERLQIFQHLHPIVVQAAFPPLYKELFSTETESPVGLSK
The assay is described as follows: ROR gamma coactivator peptide recruitment Alphascreen assay (RORγ-LBD binding to GRIP1 coactivator peptide). Particulars: 5 nM human RORγ-LBD, 30 nM 7-β-hydroxycholesterol, 50 nM biotinylated GRIP1 coactivator peptide, overnight incubation at room temperature; read-out: result (pIC50, RORγ coactivator peptide recruitment Alphascreen assay) (converted). The class given is biochemical. The gist of the method:
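Alphascreen proximity read-out after overnight room-temperature incubation, yielding pIC50 from 1-in-2 compound series (2.5% DMSO final). Mixture: 50 nM biotin-GRIP1 peptide, 30 nM 7-β-hydroxycholesterol agonist, 5 nM recombinant 6×His:Flag human RORγ-LBD (aa 262-518), 50 mM HEPES pH 7.4.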
On the technique in general: Alpha assays give light when donor and acceptor beads are brought close together.
Turning to `Cc1cc(Cl)c(C(=O)CN(C[C@@H]2CCC(C)(C)O2)C(=O)c2cnn([C@H]3CC[C@](C)(C(=O)O)CC3)c2C(F)(F)F)c(Cl)c1` [Example 783, trans-4-(4-((2-(2,6-dichloro-4-methylphenyl)-2-oxoethyl)(((2S)-5,5-dimethyltetrahydro-2-furanyl)methyl)carbamoyl)-5-(trifluoromethyl)-1H-pyrazol-1-yl)-1-methylcyclohexanecarboxylic acid], the IC50 is 3.89 nM. Next, `C[C@H](C(=O)O)[C@H]1CC[C@@H](n2ncc(C(=O)N(CC(=O)c3c(Cl)cncc3Cl)Cc3cc(F)cc(F)c3)c2C(F)(F)F)CC1` [Example 786, 2-(cis-4-(4-((2-(3,5-dichloro-4-pyridinyl)-2-oxoethyl)(3,5-difluorobenzyl)carbamoyl)-5-(trifluoromethyl)-1H-pyrazol-1-yl)cyclohexyl)propanoic acid]: 34.7 nM; `C[C@@H]1C[C@@H](n2ncc(C(=O)N(CC(=O)c3c(Cl)cccc3Cl)[C@H]3C[C@@H]4[C@H](C3)C4(C)C)c2C(F)(F)F)CC[C@@H]1C(=O)O` [Example 787, (1S,2R,4S)-4-(4-((2-(2,6-dichlorophenyl)-2-oxoethyl)((1R,3r,5S)-6,6-dimethylbicyclo[3.1.0]hex-3-yl)carbamoyl)-5-(trifluoromethyl)-1H-pyrazol-1-yl)-2-methylcyclohexanecarboxylic acid]: 2.09 nM. Turning to `C[C@@H]1C[C@@H](n2ncc(C(=O)N(CC(=O)c3c(Cl)cncc3Cl)CC3(C)CC3)c2C(F)(F)F)CC[C@@H]1C(=O)O` [Example 788, (1S,2R,4S)-4-(4-((2-(3,5-dichloro-4-pyridinyl)-2-oxoethyl)((1-methylcyclopropyl)methyl)carbamoyl)-5-(trifluoromethyl)-1H-pyrazol-1-yl)-2-methylcyclohexanecarboxylic acid], the IC50 is 17.4 nM. In the case of `C[C@]1(CC(=O)O)CC[C@H](n2ncc(C(=O)N(CC(=O)c3c(Cl)cncc3Cl)Cc3cc(F)cc(F)c3)c2C(F)(F)F)CC1` [Example 789, (trans-4-(4-((2-(3,5-dichloro-4-pyridinyl)-2-oxoethyl)(3,5-difluorobenzyl)carbamoyl)-5-(trifluoromethyl)-1H-pyrazol-1-yl)-1-methylcyclohexyl)acetic acid] it was 2.09 nM; in that of `C[C@]1(CC(=O)O)CC[C@@H](n2ncc(C(=O)N(CC(=O)c3c(Cl)cncc3Cl)Cc3cc(F)cc(F)c3)c2C(F)(F)F)CC1` [Example 790, (cis-4-(4-((2-(3,5-dichloro-4-pyridinyl)-2-oxoethyl)(3,5-difluorobenzyl)carbamoyl)-5-(trifluoromethyl)-1H-pyrazol-1-yl)-1-methylcyclohexyl)acetic acid], 34.7 nM. In the case of `CC(C)(C)CN(CC(=O)c1c(Cl)cncc1Cl)C(=O)c1cnn([C@H]2CC[C@](C)(CC(=O)O)CC2)c1C(F)(F)F` [Example 791, (trans-4-(4-((2-(3,5-dichloro-4-pyridinyl)-2-oxoethyl)(2,2-dimethylpropyl)carbamoyl)-5-(trifluoromethyl)-1H-pyrazol-1-yl)-1-methylcyclohexyl)acetic acid] it was 5.25 nM; in that of `CC(C)(C)CN(CC(=O)c1c(Cl)cncc1Cl)C(=O)c1cnn([C@H]2CC[C@@](C)(CC(=O)O)CC2)c1C(F)(F)F` [Example 792, (cis-4-(4-((2-(3,5-dichloro-4-pyridinyl)-2-oxoethyl)(2,2-dimethylpropyl)carbamoyl)-5-(trifluoromethyl)-1H-pyrazol-1-yl)-1-methylcyclohexyl)acetic acid], 102 nM; in that of `C[C@@H]1C[C@H](n2ncc(C(=O)N(CC(=O)c3c(Cl)cncc3Cl)CC(C)(C)C)c2C(F)(F)F)CC[C@H]1C(=O)O` [Example 793, (1R,2R,4R)-4-(4-((2-(3,5-dichloro-4-pyridinyl)-2-oxoethyl)(2,2-dimethylpropyl)carbamoyl)-5-(trifluoromethyl)-1H-pyrazol-1-yl)-2-methylcyclohexanecarboxylic acid], 25.1 nM. Next, `C[C@]1(C(=O)O)CC[C@H](n2ncc(C(=O)N(CC(=O)c3c(Cl)ccc(F)c3Cl)CC3(C(F)(F)F)CC3)c2C(F)(F)F)CC1` [Example 798, (1r,4r)-4-(4-((2-(2,6-dichloro-3-fluorophenyl)-2-oxoethyl)((1-(trifluoromethyl)cyclopropyl)methyl)carbamoyl)-5-(trifluoromethyl)-1H-pyrazol-1-yl)-1-methylcyclohexanecarboxylic acid]: 3.16 nM; `C[C@]1(C(=O)O)CC[C@H](n2ncc(C(=O)N(CC(=O)c3c(Cl)cncc3Cl)CC3(C(F)(F)F)CCC3)c2C(F)(F)F)CC1` [Example 799, trans-4-(4-((2-(3,5-dichloro-4-pyridinyl)-2-oxoethyl)((1-(trifluoromethyl)cyclobutyl)methyl)carbamoyl)-5-(trifluoromethyl)-1H-pyrazol-1-yl)-1-methylcyclohexanecarboxylic acid]: 3.89 nM; `C[C@]1(C(=O)O)CC[C@H](n2ncc(C(=O)N(CC(=O)c3c(Cl)cncc3Cl)CC3(CF)CCC3)c2C(F)(F)F)CC1` [Example 800, trans-4-(4-((2-(3,5-dichloro-4-pyridinyl)-2-oxoethyl)((1-(fluoromethyl)cyclobutyl)methyl)carbamoyl)-5-(trifluoromethyl)-1H-pyrazol-1-yl)-1-methylcyclohexanecarboxylic acid]: 3.02 nM. As to `Cc1cc(Cl)c(C(=O)CN(CC2CCCCC2)C(=O)c2cnn([C@H]3CC[C@](C)(C(=O)O)CC3)c2C(F)(F)F)c(Cl)n1` [Example 801, trans-4-(4-((cyclohexylmethyl)(2-(2,4-dichloro-6-methyl-3-pyridinyl)-2-oxoethyl)carbamoyl)-5-(trifluoromethyl)-1H-pyrazol-1-yl)-1-methylcyclohexanecarboxylic acid], the IC50 was 8.51 nM. In the case of `C[C@@H]1C[C@@H](n2ncc(C(=O)N(CC(=O)c3c(Cl)cncc3Cl)CC(C)(C)C(F)(F)F)c2C(F)(F)F)CC[C@@H]1C(=O)O` [Example 802, (1S,2R,4S)-4-(4-((2-(3,5-dichloro-4-pyridinyl)-2-oxoethyl)(3,3,3-trifluoro-2,2-dimethylpropyl)carbamoyl)-5-(trifluoromethyl)-1H-pyrazol-1-yl)-2-methylcyclohexanecarboxylic acid] it was 3.02 nM; in that of `CC(C)CCN(CC(=O)c1c(Cl)cncc1Cl)C(=O)c1cnn([C@H]2CC[C@H](C(=O)O)[C@H](C)C2)c1C(F)(F)F` [Example 803, (1S,2R,4S)-4-(4-((2-(3,5-dichloro-4-pyridinyl)-2-oxoethyl)(3-methylbutyl)carbamoyl)-5-(trifluoromethyl)-1H-pyrazol-1-yl)-2-methylcyclohexanecarboxylic acid], 63.1 nM.

As to `CC(C)CCN(CC(=O)c1c(Cl)cccc1Cl)C(=O)c1cnn([C@H]2CC[C@H](C(=O)O)[C@H](C)C2)c1C(F)(F)F` [Example 804, (1S,2R,4S)-4-(4-((2-(2,6-dichlorophenyl)-2-oxoethyl)(3-methylbutyl)carbamoyl)-5-(trifluoromethyl)-1H-pyrazol-1-yl)-2-methylcyclohexanecarboxylic acid], the IC50 is 53.7 nM. Next, `Cc1cc(F)c(C(=O)CN(C[C@]2(C)CCCO2)C(=O)c2cnn([C@H]3CC[C@](C)(C(=O)O)CC3)c2C(F)(F)F)c(Cl)c1` [Example 805, trans-4-(4-((2-(2-chloro-6-fluoro-4-methylphenyl)-2-oxoethyl)(((2S)-2-methyltetrahydro-2-furanyl)methyl)carbamoyl)-5-(trifluoromethyl)-1H-pyrazol-1-yl)-1-methylcyclohexanecarboxylic acid]: 11.2 nM; `Cc1cc(F)c(C(=O)CN(C[C@@]2(C)CCCO2)C(=O)c2cnn([C@H]3CC[C@](C)(C(=O)O)CC3)c2C(F)(F)F)c(Cl)c1` [Example 806, trans-4-(4-((2-(2-chloro-6-fluoro-4-methylphenyl)-2-oxoethyl)(((2R)-2-methyltetrahydro-2-furanyl)methyl)carbamoyl)-5-(trifluoromethyl)-1H-pyrazol-1-yl)-1-methylcyclohexanecarboxylic acid]: 102 nM. Next, `C[C@]1(C(=O)O)CC[C@H](n2ncc(C(=O)N(CC(=O)c3c(Cl)cncc3Cl)C[C@H]3CCCO3)c2C(F)(F)F)CC1` [Example 808, trans-4-(4-((2-(3,5-dichloro-4-pyridinyl)-2-oxoethyl)((2R)-tetrahydro-2-furanylmethyl)carbamoyl)-5-(trifluoromethyl)-1H-pyrazol-1-yl)-1-methylcyclohexanecarboxylic acid]: 186 nM; `C[C@@H]1C[C@@H](n2ncc(C(=O)N3CC4(CC=CC4)C[C@@H]3Cc3c(Cl)cncc3Cl)c2C(F)(F)F)CC[C@@H]1C(=O)O` [Example 809, (1S,2R,4S)-4-(4-(((3R)-3-((3,5-dichloro-4-pyridinyl)methyl)-2-azaspiro[4.4]non-7-en-2-yl)carbonyl)-5-(trifluoromethyl)-1H-pyrazol-1-yl)-2-methylcyclohexanecarboxylic acid]: 17.8 nM. In the case of `C[C@@H]1C[C@@H](n2ncc(C(=O)N(CC(=O)c3c(Cl)cncc3Cl)CC3(F)CCCC3)c2C(F)(F)F)CC[C@@H]1C(=O)O` [Example 810, (1S,2R,4S)-4-(4-((2-(3,5-dichloro-4-pyridinyl)-2-oxoethyl)((1-fluorocyclopentyl)methyl)carbamoyl)-5-(trifluoromethyl)-1H-pyrazol-1-yl)-2-methylcyclohexanecarboxylic acid] it was 3.09 nM.
